Measurements published in patent US20150320709A1, “METHODS AND COMPOSITIONS FOR FACILITATING WEIGHT LOSS BY ADMINISTRATION OF THYROID HORMONES” (priority 2011, published 2015).

Experiments:
[1] = system: thyroid hormone receptors; settings: cited from earlier work
[2] = Circulating thyroid hormone labs (FT3, FT4, rT3, TSH) in weight loss program patients on thyroid hormone treatment; assay type: in vivo, human
Excerpt: FIG. 1 depicts hormonal responses to a hypocaloric state with subsequent treatment. Note: Time frames and shapes of response curves are approximated. Levels of all four hormones are normal before the diet (Time A). At time between time points B and D, TSH is dropping slightly to signal the thyroid gland to make less thyroid hormone. This drop is the mechanism to decrease metabolism in the hypocaloric state. At point C, free T3 begins to drop as rT3 increases. Also at time point C, different observations have been reported for changes in FT4: in our experience, FT4 also drops as indicated on the graph. In the literature, some report no change, whereas others report an increase in FT4. By the time of the blood sampling (time E), in our experience, patients whose FT3 and FT4 have dropped to the low end of normal (with possible above normal rT3 levels) are those experiencing symptoms of low thyroid. They may have any of the following symptoms: feeling cold, cold hands and feet, elevated diastolic blood pressure secondary to vasoconstriction, fatigue, depression, constipation, hair loss, dry skin, insomnia, as well as others. They have often hit a plateau of weight loss even though they have continued to maintain their hypocaloric diet and exercise program. At point F, we begin treatment with thyroid hormone (for example, T4 with T3, T3 alone, T3 with T2 and T4, or T2 alone. Between points F and G, FT3 and rT3 (and FT4 if T4 was administered) are returning to more normal levels, while TSH plummets, often to undetectable levels. At time point H, symptoms of low thyroid are resolved, the patient has no symptoms of hyperthyroidism, and if rT3 had risen and was treated appropriately, rT3 decreased.
The first patient example is a person, 5′2″, weight 268 lbs, body mass index (BMI) 49 (nl 19-24; overweight 25-29; obesity≧30). Baseline blood pressure was 110/74, blood sugar (BS) was 153 mg/dL 10 days after their first visit. Their medical problems at baseline included obesity, type 2 diabetes mellitus (DM2), high blood pressure (HTN), fatigue, depression, and asthma. Their medications included glipizide 10 mg daily, amitriptyline 50 mg daily, metoprolol 50 mg daily, furosemide 40 mg daily, potassium chloride, lisinopril 10 mg daily, Advair Discus 500/50 twice daily (bid), and montelukast 10 mg daily. They were started on our comprehensive program. Five months after starting their weight loss treatment, they developed symptoms of hypothyroidism with constipation and fatigue. They had lost 28 lbs by this time and was having difficulty losing more weight even though they were eating less than they were before their weight loss treatment began. At the start of treatment, their FT4 was 0.9 ng/dL (nl 0.7-1.48). At the time of their low thyroid symptoms, their FT3 was 2.9 pg/mL (nl 1.71-3.71) and their FT4 was 0.91 ng/dL (nl 0.7-1.48). They were then treated with thyroid hormone (desiccated thyroid with a ratio of T4:T3 of about 4:1) at 60 mg daily for 6 days to acclimate, then increased to 120 mg daily. […] After two years on their weight loss treatment, their weight was 231 lbs. […] We tested for rT3 at this point. Their labs on the 150 mg dose of desiccated thyroid were: rT3 394 pg/mL (nl 90-350), FT3 3.94 pg/mL (nl 1.71-3.71), and FT4 1.24 ng/dL (nl 0.7-1.48). The task of bringing down their rT3 was then addressed. Over a period of a few months, their desiccated thyroid hormone was discontinued and instead the patient was given gradually increasing doses of T3 only, starting at 20 mcg daily and gradually increasing the T3 to 60 mcg bid. Five months after starting on T3 with increasing doses, their weight had dropped to 209 lbs. Their BP was 118/66 mmHg with pulse of 74 on lisinopril 10 mg daily, metoprolol 50 mg bid, and furosemide 40 mg daily. Instead of glipizide, they were taking metformin 500 mg bid. […] Their most recent labs on 60 mcg bid of T3 were FT3 3.8 pg/mL (nl 1.71-3.71), FT4 0.64 ng/dL (nl 0.7-1.48) and rT3 137 pg/mL (nl 90-350). Four months prior to this visit their BS was 125 mg/dl. […]

[3] = Low thyroid symptoms / clinical status of weight loss program patients on thyroid hormone treatment; assay type: in vivo, human
[4] = as above; assay type: in vivo, human; settings: Patient Example 2; 75 mcg daily, within a few weeks of switch from desiccated thyroid
Protocol: The first patient example is a person, 5′2″, weight 268 lbs, body mass index (BMI) 49 (nl 19-24; overweight 25-29; obesity≧30). Baseline blood pressure was 110/74, blood sugar (BS) was 153 mg/dL 10 days after their first visit. Their medical problems at baseline included obesity, type 2 diabetes mellitus (DM2), high blood pressure (HTN), fatigue, depression, and asthma. Their medications included glipizide 10 mg daily, amitriptyline 50 mg daily, metoprolol 50 mg daily, furosemide 40 mg daily, potassium chloride, lisinopril 10 mg daily, Advair Discus 500/50 twice daily (bid), and montelukast 10 mg daily. They were started on our comprehensive program. Five months after starting their weight loss treatment, they developed symptoms of hypothyroidism with constipation and fatigue. They had lost 28 lbs by this time and was having difficulty losing more weight even though they were eating less than they were before their weight loss treatment began. At the start of treatment, their FT4 was 0.9 ng/dL (nl 0.7-1.48). At the time of their low thyroid symptoms, their FT3 was 2.9 pg/mL (nl 1.71-3.71) and their FT4 was 0.91 ng/dL (nl 0.7-1.48). They were then treated with thyroid hormone (desiccated thyroid with a ratio of T4:T3 of about 4:1) at 60 mg daily for 6 days to acclimate, then increased to 120 mg daily. […] After two years on their weight loss treatment, their weight was 231 lbs. […] We tested for rT3 at this point. Their labs on the 150 mg dose of desiccated thyroid were: rT3 394 pg/mL (nl 90-350), FT3 3.94 pg/mL (nl 1.71-3.71), and FT4 1.24 ng/dL (nl 0.7-1.48). The task of bringing down their rT3 was then addressed. Over a period of a few months, their desiccated thyroid hormone was discontinued and instead the patient was given gradually increasing doses of T3 only, starting at 20 mcg daily and gradually increasing the T3 to 60 mcg bid. Five months after starting on T3 with increasing doses, their weight had dropped to 209 lbs. Their BP was 118/66 mmHg with pulse of 74 on lisinopril 10 mg daily, metoprolol 50 mg bid, and furosemide 40 mg daily. Instead of glipizide, they were taking metformin 500 mg bid. […] Their most recent labs on 60 mcg bid of T3 were FT3 3.8 pg/mL (nl 1.71-3.71), FT4 0.64 ng/dL (nl 0.7-1.48) and rT3 137 pg/mL (nl 90-350). Four months prior to this visit their BS was 125 mg/dl.
The second patient example is a person, 5′2″, weight 150 lbs, BMI 28 (nl 18.5-24.9; overweight 25-29.9; obesity≧30), with HTN. Their blood pressure was slightly elevated at 148/85 (on lisinopril 5 mg daily). Their medical problems at baseline included history of Hashimoto's thyroiditis, borderline high TSH, elevated lipids, and HTN. Their medications were lisinopril 5 mg daily, estradiol 2 mg daily, and rofecoxib 25 mg daily for osteoarthritis of their large joints. […]

[5] = Existing thyroid therapy in subjects undergoing a weight loss regimen (general finding); assay type: in vivo; settings: T4 alone or T3:T4 at ratios of less than 1:2
Excerpt: Such T4 based therapy often serves to increase levels of rT3 and decreases levels of circulating T3, thereby undermining attempts to counter hypothyroidism and effect continued weight loss.

**Q.** For `N[C@@H](Cc1ccc(Oc2cc(I)c(O)c(I)c2)c(I)c1)C(=O)O` [rT3, reverse triiodothyronine], which “action on thyroid hormone receptors” value [1] is on record?
**A.** Its value is “does not stimulate thyroid hormone receptors but instead binds to these receptors”.

**Q.** For `N[C@@H](Cc1cc(I)c(Oc2ccc(O)cc2)c(I)c1)C(=O)O` [T2, 3,5-diiodo-1-thyronine], which FT4 ([2]; Patient Example 3, T2 2 mcg SR q AM added, T3 25 mcg b.i.d., normal range 0.93-1.7) is on record?
**A.** The FT4 was 0.23 ng/dL.

**Q.** What about the FT3 ([2]; Patient Example 3, T2 2 mcg SR q AM added, T3 25 mcg b.i.d., normal range 2.2-4.0) of the same molecule?
**A.** The FT3 was 3.2 pg/mL.

**Q.** What about the rT3 ([2]; Patient Example 3, T2 2 mcg SR q AM added, T3 25 mcg b.i.d., normal range 90-350) of the same molecule?
**A.** The rT3 was 69 pg/mL.

**Q.** What about the FT3 ([2]; Patient Example 4, T2 2 mcg twice daily added, T3 50 mcg twice daily, normal range 2.2-4.0) of the same molecule?
**A.** The FT3 was 2.7 pg/mL.

**Q.** And the reported symptoms ([3]; Patient Example 3, T2 2 mcg SR q AM added, T3 25 mcg b.i.d., 10 days after start of T2)?
**A.** Its reported symptoms is “surfaces of their body were now warm and not numb, and that their skin and hair had improved”.

**Q.** And the energy levels ([3]; Patient Example 3, T2 2 mcg SR q AM added, T3 decreased to 25 mcg b.i.d., two days later)?
**A.** The energy levels was “energy levels were normalized”.

**Q.** And the low thyroid symptoms ([3]; Patient Example 3, over six weeks after starting the T2 regimen)?
**A.** The low thyroid symptoms was “not suffering from any symptoms of low thyroid”.

**Q.** And the reported symptoms ([3]; Patient Example 4, T2 2 mcg q AM and 8-10 hours later added, T3 reduced to 50 mcg twice daily, nearly two months)?
**A.** The reported symptoms was “no complaints of fatigue and reported that only a slight coldness persisted”.

**Q.** What does the source list for `N[C@@H](Cc1cc(I)c(Oc2cc(I)c(O)c(I)c2)c(I)c1)C(=O)O` [T4, (2S)-2-amino-3-[4-(4-hydroxy-3,5-diiododophenoxy)-3,5-diiodophenyl]propanoic acid]?
**A.** low thyroid symptoms [4]: began to feel tired, cold, and depressed and developed constipation and hair loss; TSH ([2]; Patient Example 2, 75 mcg daily): 0.91 uIU/mL; FT4 ([2]; Patient Example 2, 75 mcg daily, nl 0.93-1.70): 1.07 ng/dL; FT3 ([2]; Patient Example 2, 75 mcg daily, nl 2.2-4.0): 2.3 pg/mL; correction of thyroid abnormalities and/or hypothyroidism so as to permit continuing weight loss [5]: fails to correct thyroid abnormalities and/or hypothyroidism
